According to patent US6544987B2, “Compounds, compositions, and methods for stimulating neuronal growth and elongation” (Pfizer Inc., priority 1999, dated 2003):
pKi: −log10 of the molar value. Values joined by “and” are separate entries in the source; they are usually repeats but may differ in a detail not shown here. Equal entries are not always repeated.

target: FKBP12 (Homo sapiens, UniProt P62942); experiment: Affinity for FKBP-12 (Ki), succinyl-Ala-Leu-Pro-Phe-pNA chymotrypsin-coupled assay; type: biochemical; conditions: Table 2; read-out: FKBP12 Kiapps
Protocol: In a quartz cuvette, a final 1 mL buffer concentration was reached (50 mM Hepes, 100 mM NaCl, pH 8.0). Within this final reaction volume, 3.5 μL […] FKBP-12 (in 50 mM Hepes, 100 mM NaCl, pH 8.0) and 10 μL test compound in DMSO were added. The reaction was initiated by adding 10 μL chymotrypsin (100 mg/mL in 1 mM HCl) followed by 5 μL (1-20 mM succinyl-Ala-Leu-Pro-Phe-pNA in 240 mM LiCl/TFE).
The absorbance at 390 nm versus time was monitored for up to 400 seconds. Rate constants were determined from the absorbance versus time plots generated.

Sequence of FKBP12 (P62942 whole entry, species assumed): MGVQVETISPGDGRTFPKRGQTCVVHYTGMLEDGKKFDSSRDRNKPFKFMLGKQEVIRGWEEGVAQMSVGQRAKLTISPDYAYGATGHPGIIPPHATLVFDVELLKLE

SMILES | pKi
CCC(C)(C)NS(=O)(=O)N1CCC[C@H]1C(=O)OCc1ccccc1 [Compound 27, 1-(1,1-Dimethyl-propylsulfamoyl)-pyrrolidine-2S-carboxylic acid Benzyl ester] | 5.55
O=C(OCc1ccccc1)[C@@H]1CCCN1S(=O)(=O)Nc1ccccc1 [Compound 28, 1-Phenylsulfamoyl-pyrrolidine-2S-carboxylic acid Benzyl ester] | 4.71
COc1cc(NS(=O)(=O)N2CCC[C@H]2C(=O)OCc2ccccc2)cc(OC)c1OC [Compound 29, 1-(3,4,5-Trimethoxy-phenylsulfamoyl)-pyrrolidine-2S-carboxylic acid Benzyl ester] | 4.46
COc1cc(NS(=O)(=O)N2CCCC[C@H]2C(=O)OCc2ccccc2)cc(OC)c1OC [Compound 36, 1-(3,4,5-Trimethoxy-phenylsulfamoyl)-piperidine-2S-carboxylic acid Benzyl ester] | 6.40
NS(=O)(=O)N1CCCC[C@H]1C(=O)OCc1ccccc1 [Compound 37, 1-sulfamoyl-piperidine-2S-carboxylic acid Benzyl ester] | 3.91
COc1cc(N2C(=O)[C@@H]3CCCCN3S2(=O)=O)cc(OC)c1OC [Compound 40, 1,1-Dioxo-2-(3,4,5-trimethoxy-phenyl)-hexahydro-1-[1,2,5] Thiadiazolo [2,3-] pyridin-3-one] | 3.64
NS(=O)(=O)N1CCCC[C@H]1C(=O)OCCCCc1ccccc1 [Compound 41, 1-Sulfamoyl-piperidine-2S-carboxylic acid 4-phenyl-butyl ester] | 4.42
O=C(OCCCCc1ccccc1)[C@@H]1CCCCN1S(=O)(=O)Nc1ccc(N2CCOCC2)cc1 [Compound 42, (S)-1-(4-morpholin-4-yl-phenylsulfamoyl)-piperidine-2-carboxylic 4-phenyl-butyl ester] | 6.58
COc1ccc(N(C)S(=O)(=O)N2CCCC[C@H]2C(=O)OCCCCc2ccccc2)cc1 [Compound 43, 1-[(4-methoxy-phenyl)-methyl-sulfamoyl]-piperidine-2S-carboxylic acid 4-phenyl-butyl ester] | 4.72
CN(c1ccccc1)S(=O)(=O)N1CCCC[C@H]1C(=O)OCCCCc1ccccc1 [Compound 44, 1-(Methyl-phenyl-sulfamoyl)-piperidine-2S-carboxylic acid 4-phenyl-butyl ester] | 4.92
O=C(OCCCCc1ccccc1)[C@@H]1CCCCN1S(=O)(=O)Nc1ccc2[nH]c(=O)[nH]c2c1 [Compound 45, 1-(2-Oxo-2,3-dihydro-1H-benzoimidazol-5-ylsulfamoyl)-piperidine-2-carboxylic acid 4-phenyl-butyl ester] | 7.08
COc1ccc2nc(NS(=O)(=O)N3CCCC[C@H]3C(=O)OCCCCc3ccccc3)sc2c1 [Compound 46, 1-(6-Methoxy-benzothiazol-2-ylsulfamoyl)-piperidine-2S-carboxylic acid 4-phenyl-butyl ester] | 4.43
O=C(OCCCCc1ccccc1)[C@@H]1CCCCN1S(=O)(=O)Nn1cccc1 [Compound 47, 1-(Pyrrol-1-ylsulfamoyl)-piperidine-2S-carboxylic acid 4-phenylbutyl ester] | 5.80
COc1cc(NS(=O)(=O)N2CCCC[C@H]2C(=O)OCCCCc2ccccc2)cc(OC)c1 [Compound 48, 1-(3,5-Dimethoxy-phenylsulfamoyl)-piperidine-2S-carboxylic acid 4-phenyl-butyl ester] | 6.46
COc1ccc(NS(=O)(=O)N2CCCC[C@H]2C(=O)OCCCCc2ccccc2)cn1 [Compound 49, 1-(6-methoxy-pyridin-3-ylsulfamoyl)-piperidine-2S-carboxylic acid 4-phenyl-butyl ester] | 7.10
NC(=O)C1CCCN(S(=O)(=O)N2CCCC[C@H]2C(=O)OCCCCc2ccccc2)C1 (stereo partly drawn) [Compound 51, 1-(3-Carbamoyl-piperidine-1-sulfonyl)-piperidine-2S-carboxylic acid 4-phenyl-butyl ester] | 6.03
O=C(OCCCCc1ccccc1)[C@@H]1CCCCN1S(=O)(=O)Nc1ccc(Cl)nc1 [Compound 52, (S)-1-(6-Chloro-pyridin-3-ylsulfamoyl)-piperidine-2-carboxylic acid 4-phenyl-butyl ester] | 6.82
COC(OC)c1ccn(S(=O)(=O)N2CCCC[C@H]2C(=O)OCCCCc2ccccc2)n1 [Compound 53, 1-(3-Dimethoxymethyl-pyrazole-1-sulfonyl)-peperidine-2-carboxyic acid 4-phenyl-butyl ester] | 5.54
COc1ccc(N(C)S(=O)(=O)N2CCCC[C@H]2C(=O)OCCCCc2ccccc2)cc1N [Compound 55, (S)-1-[(3-Amino-4-methoxy-phenyl)-methyl-sulfamoyl]-piperidine-2-carboxylic acid 4-phenyl-butyl ester] | 4.88
O=C(OCCCCc1ccccc1)[C@@H]1CCCCN1S(=O)(=O)Nc1ccc2nc[nH]c2c1 [Compound 56, (S)-1-(3H-Benzoimidazol-5-ylsulfamoyl)-piperidine-2-carboxylic acid 4-phenyl-butyl ester] | 6.32
NS(=O)(=O)N1CCSCC1C(=O)OCCCCc1ccccc1 (centres unmarked) [Compound 67, 4-sulfamoyl-thiomorpholine-3-carboxylic acid 4-phenyl-butyl ester] | 3.48 and 3.57
O=C(OCCCCc1ccccc1)C1CSCCN1S(=O)(=O)Nc1ccccc1 (centres unmarked) [Compound 69, 4-Phenylsulfamoyl-thiomorpholine-3-carboxylic acid 4-phenyl-butyl ester] | 5.28
CN(C)S(=O)(=O)N1CCCC[C@H]1c1nnc(Cc2ccccc2)o1 [Compound 75, 2S-(5-Benzyl-[1,3,4]oxadiazol-2-yl)-piperidine-1-sulfonic acid dimethylamide] | 3.97
COc1ccc(N(C)S(=O)(=O)N2CCCC[C@H]2c2nnc(Cc3ccccc3)o2)cc1 [Compound 77, 2-(5-Benzyl-[1,3,4]oxadiazol-2-yl)-piperidine-1-sulfonic acid (4-methoxy-phenyl)-methyl-amide] | 4.17
COc1ccc(NS(=O)(=O)N2CCCC[C@H]2C(=O)OCc2ccccc2)cn1 [Compound 87, 1-(6-Methoxy-pyridin-3-ylsulfamoyl)-piperidine-2S-carboxylic acid Benzyl ester] | 6.12
C[C@@H]1CN(S(=O)(=O)N2CCCC[C@H]2C(=O)OCc2ccccc2)C[C@H](C)O1 [Compound 88, (S)-1-(cis-2,6-Dimethyl-morpholine-4-sulfonyl)-piperidine-2-carboxylic acid benzyl ester] | 6.08

The remaining lines, values ahead:

pKi | SMILES
5.19 | O=C(OCCCCc1ccccc1)[C@@H]1CCCCN1S(=O)(=O)Oc1ccccc1 [Compound 13, 1-Phenoxy sulfonyl-piperidine-2S-carboxylic acid 4-phenyl-butyl ester]
4.56 | O=C(OCc1ccccc1)[C@@H]1CCCN1S(=O)(=O)Oc1ccccc1 [Compound 15, 1-Phenoxy sulfonyl-pyrrolidine-2S-carboxylic acid benzyl ester]
6.17 | CCC(C)(C)NS(=O)(=O)N1CCCC[C@H]1C(=O)OCc1ccccc1 [Compound 38, 1-(1,1-Dimethyl-propylsulfamoyl)-piperidine-2S-carboxylic acid Benzyl ester]
< 4.00 | COc1cc(NS(=O)(=O)N2CCCC[C@H]2C(=O)O)cc(OC)c1OC [Compound 39, 1-(3,4,5-Trimethoxy-phenylsulfamoyl)-piperidine-2S-carboxylic acid]
4.59 | COc1ccc(N(C)S(=O)(=O)N2CCCC[C@H]2C(=O)OCCCCc2ccccc2)cc1[N+](=O)[O-] [Compound 54, (S)-1-[(4-Methoxy-3-nitro-phenyl)-methyl-sulfamoyl]-piperidine-2-carboxylic acid 4-phenyl-butyl ester]
6.83 | COc1cc(NS(=O)(=O)N2CCCC[C@H]2C(=O)NCCCCc2ccccc2)cc(OC)c1OC [Compound 59, (S)-1-(3,4,5-Trimethoxy-phenylsulfamoyl)-piperidine-2-carboxylic acid (4-phenyl-butyl)-amide]
5.36 and 5.19 | COc1cc(NS(=O)(=O)N2CCSCC2C(=O)OCCCCc2ccccc2)cc(OC)c1OC (centres unmarked) [Compound 68, 4-(3,4,5-trimethoxy-phenylsulfamoyl)-thiomorpholine-3-carboxylic acid 4-phenyl-butyl ester]
6.02 | O=C(OCCCCc1ccccc1)C1CSCCN1S(=O)(=O)Nc1ccc2[nH]c(=O)[nH]c2c1 (centres unmarked) [Compound 70, 4-(2-Oxo-2,3-dihydro-1H-benzoimidazol-5-ylsulfamoyl)-thiomorpholine-3-carboxylic acid 4-phenyl-butyl ester]
5.89 | O=S(=O)(Nc1ccccc1)N1CCCC[C@H]1c1nnc(Cc2ccccc2)o1 [Compound 76, 2S-(5-Benzyl-[1,3,4]oxadiazol-2-yl)-piperidine-1-sulfonic acid phenylamide]
5.28 | COc1cc(NS(=O)(=O)N2CCCC[C@H]2c2nnc(Cc3ccccc3)o2)cc(OC)c1OC [Compound 78, 2-(5-Benzyl-[1,3,4]oxadiazol-2-yl)-piperidine-1-sulfonic acid (3,4,5-trimethoxy-phenyl)-amide]
5.80 | COc1cc(NS(=O)(=O)N2[C@H]3CC[C@H](C3)[C@H]2C(=O)OCCCCc2ccccc2)cc(OC)c1OC [Compound 85, 2-(3,4,5-Trimethoxy-phenylsulfamoyl)-2-aza-bicyclo[2.2.1]heptane-endo-3-carboxylic acid 4-phenyl-butyl ester]
5.75 and 5.93 | O=C(OCc1ccccc1)[C@@H]1CCCCN1S(=O)(=O)Nc1ccc(N2CCOCC2)nc1 [Compound 86, (S)-1-(6-Morpholin-4-yl-pyridin-3-ylsulfamoyl)-piperidine-2-carboxylic acid Benzyl ester]
